The text below walks through data of patent US20230286946A1, “DIFLUOROMETHYL-PYRIDIN-2-YL TRIAZOLES” (Boehringer Ingelheim International GmbH, priority 2020, published 2023).

SMILES strings stand for the structures.

One data set concerns human MDR1 P-gp. In words: Assessment of efflux in MDCK cells transfected with the human MDR1 gene. The data set is classed as in vitro ADME, canine. The settings on record: dog, pH 7.4, 37° C.; for Papp A→B: apical-to-basal, read-out: MDCK-PGP A-B; for efflux ratio: read-out: MDCK-PGP Efflux ratio [PEBA/PEAB]. As to the method: Assessment of efflux in Madin-Darby canine kidney (MDCK) cells transfected with the human MDR1 gene to assess brain penetration (Drug Metabolism and Disposition February 2008, 36 (2) 268-275; DOI: https://doi.org/10.1124/dmd.107.017434)
Apparent permeability coefficients (PE) of the compounds across the MDCK-MDR1 cell monolayers are measured (pH 7.4, 37° C.) in apical-to-basal (AB) and basal-to-apical (BA) transport direction. AB permeability (PEAB) represents drug absorption from the blood into the 35 brain and BA permeability (PEBA) drug efflux from the brain back into the blood via both passive permeability as well as active transport mechanisms mediated by efflux and uptake transporters that are expressed on the MDCK-MDR1 cells, predominantly by the overexpressed human MDR1 P-gp. The compounds are assigned to permeability/absorption classes by comparison of the AB permeabilities with the AB permeabilities of reference compounds with known in vitro permeability and oral absorption in the human. Identical or similar permeabilities in both transport directions indicate passive permeation, vectorial permeability points to additional active transport mechanisms. Higher PEBA than PEAB indicates the involvement of active efflux mediated by MDR1 P-gp. Active transport is concentration-dependently saturable.
MDCK-MDR1 cells (1-2×10e5 cells/1 cm2 area) are seeded on filter inserts (Costar transwell polycarbonate or PET filters, 0.4 μm pore size) and cultured (DMEM) for 7 days. Subsequently, the MDR1 expression is boosted by culturing the cells with 5 mM sodium butyrate in full medium for 2 days. Compounds are dissolved in appropriate solvent (like DMSO, 1-20 mM stock solutions). Stock solutions are diluted with HTP-4 buffer (128.13 mM NaCl, 5.36 mM KCl, 1 mM MgSO4, 1.8 mM CaCl2, 4.17 mM NaHCO3, 1.19 mM Na2HPO4×7H2O, 0.41 mM NaH2PO4×H2O, 15 mM HEPES, 20 mM glucose, 0.25% BSA, pH 7.4) to prepare the transport solutions (0.1-300 μM compound, final DMSO <=0.5%). The transport solution (TL) is applied to the apical or basolateral donor side for measuring A-B or B-A permeability (3 filter replicates), respectively. The receiver side contains the same buffer as the donor side. Samples are collected at the start and end of experiment from the donor and at various time intervals for up to 2 hours also from the receiver side for concentration measurement by HPLC-MS/MS or scintillation counting. Sampled receiver volumes are replaced with fresh receiver solution.

The nature of data set [1]: Metabolic stability in human liver microsomes (Human MST). The data set is classed as in vitro ADME. The settings on record: pH 7.6, pooled human liver microsomes, 37° C., read-out: Human MST t½. As to the method: Assessment of Metabolic Stability in Human Liver Microsomes (Human MST) The metabolic stability of the compounds according to the invention may be investigated as follows: The metabolic degradation of the test compound is assayed at 37° C. with pooled human liver microsomes. The final incubation volume of 100 μL per time point contains TRIS buffer pH 7.6 at room temperature (0.1 M), MgCl2 (5 mM), microsomal protein (1 mg/mL) and the test compound at a final concentration of 1 μM. Following a short pre-incubation period at 37° C., the reactions are initiated by addition of beta-nicotinamide adenine dinucleotide phosphate, reduced form (NADPH, 1 mM), and terminated by transferring an aliquot into solvent after different time points. After centrifugation (10000 g, 5 min), an aliquot of the supernatant is assayed by LCMS/MS for the amount of parent compound. The half-life (t1/2) is determined by the slope of the semi-logarithmic plot of the concentration-time profile.

Turning to `Cc1nnn(-c2ccc(C(F)F)cn2)c1COc1ccc(-c2ccc(=O)n(C)c2)nn1` [Example 1, 5-[6-({1-[5-(difluoromethyl)pyridin-2-yl]-4-methyl-1H-1,2,3-triazol-5-yl}methoxy)pyridazin-3-yl]-1-methyl-1,2-dihydropyridin-2-one], in the data set on human MDR1 P-gp, the Papp A→B worked out at 31 ×10⁻⁶ cm/s and the efflux ratio was found to be 1.8. In data set [1], the half-life at 1 μM is over 2.17 h.

`Cc1nnn(-c2ccc(C(F)F)cn2)c1COc1ccc(-c2cnc(N)nc2)nn1` [Example 2]: in the data set on human MDR1 P-gp, the Papp A→B stood at 34 ×10⁻⁶ cm/s and the efflux ratio was determined as 1.9.

Turning to `Cc1cc(-c2ccc(OCc3c(C)nnn3-c3ccc(C(F)F)cn3)nn2)cnn1` [Example 3], in the data set with human MDR1 P-gp, the Papp A→B was 41 ×10⁻⁶ cm/s and the efflux ratio stood at 1.4. Besides, the half-life at 1 μM in data set [1] is over 2.17 h.

Consider `Cc1nnn(-c2ccc(C(F)F)cn2)c1COc1ccc(-c2cn[nH]c2)nn1` [Example 4], for which, in the data set with human MDR1 P-gp, the Papp A→B is 57 ×10⁻⁶ cm/s and the efflux ratio is 0.8. Further, in data set [1], the half-life at 1 μM amounted to 0.667 h.

With `Cc1nnn(-c2ccc(C(F)F)cn2)c1COc1ccc(-c2cc[nH]n2)nn1` [Example 5], the half-life at 1 μM in data set [1] came to 1.38 h.

Take `Cc1nnn(-c2ccc(C(F)F)cn2)c1COc1ccc(-c2cccc(C(N)=O)c2)nn1` [Example 6]: the half-life at 1 μM in data set [1] was determined as 1.93 h.

As for `Cc1nnn(-c2ccc(C(F)F)cn2)c1COc1ccc(-c2cnn(CC#N)c2)nn1` [Example 7], the half-life at 1 μM in data set [1] is over 2.17 h.

As for `Cc1nnn(-c2ccc(C(F)F)cn2)c1COc1ccc(-c2ccc(C#N)nc2)nn1` [Example 8], in data set [1], the half-life at 1 μM is over 2.17 h.

As for `Cc1nnn(-c2ccc(C(F)F)cn2)c1COc1ccc(-c2ccc(C#N)s2)nn1` [Example 12], in the data set on human MDR1 P-gp, the Papp A→B amounted to 51 ×10⁻⁶ cm/s and the efflux ratio is 0.3.

Regarding `CNc1cccc(-c2ccc(OCc3c(C)nnn3-c3ccc(C(F)F)cn3)nn2)n1` [Example 14], in the data set with human MDR1 P-gp, the Papp A→B was found to be 55 ×10⁻⁶ cm/s and the efflux ratio is 0.7.

Consider `Cc1n[nH]c(C)c1-c1ccc(OCc2c(C)nnn2-c2ccc(C(F)F)cn2)nn1` [Example 15], for which, in the data set on human MDR1 P-gp, the Papp A→B came out at 17 ×10⁻⁶ cm/s and the efflux ratio stood at 3.5.

With `Cc1nnn(-c2ccc(C(F)F)cn2)c1COc1ccc(-c2ccc(S(C)(=O)=O)nc2)nn1` [Example 16], in the data set with human MDR1 P-gp, the Papp A→B was found to be 59 ×10⁻⁶ cm/s and the efflux ratio came to 0.6.

Regarding `Cc1nnn(-c2ccc(C(F)F)cn2)c1COc1ccc(-c2ccnnc2)nn1` [Example 17], in the data set on human MDR1 P-gp, the Papp A→B came out at 51 ×10⁻⁶ cm/s and the efflux ratio is 1. For the same compound, the half-life at 1 μM in data set [1] was over 2.17 h.

On to `Cc1ncc(-c2ccc(OCc3c(C)nnn3-c3ccc(C(F)F)cn3)nn2)o1` [Example 18], for which, in the data set on human MDR1 P-gp, the Papp A→B came out at 71 ×10⁻⁶ cm/s and the efflux ratio turned out to be 0.6. The half-life at 1 μM in data set [1] was over 2.17 h.

As for `Cc1nnn(-c2ccc(C(F)F)cn2)c1COc1ccc(-c2ccc(N)nc2)nn1` [Example 19], in the data set with human MDR1 P-gp, the Papp A→B came out at 41 ×10⁻⁶ cm/s and the efflux ratio is 1.2.

For the compound `Cc1nnn(-c2ccc(C(F)F)cn2)c1COc1ccc(-c2c[nH]c(=O)c(F)c2)nn1` [Example 20], in the data set with human MDR1 P-gp, the Papp A→B is 15 ×10⁻⁶ cm/s and the efflux ratio is 2. For the same compound, the half-life at 1 μM in data set [1] was over 2.17 h.

As for `CCn1cc(-c2ccc(OCc3c(-c4ccc(C(F)F)cn4)nnn3C)nn2)cn1` [Example 22], in the data set with human MDR1 P-gp, the Papp A→B was determined as 40 ×10⁻⁶ cm/s and the efflux ratio stood at 1.1. Moreover, the half-life at 1 μM in data set [1] is over 2.17 h.

As to `Cn1nnc(-c2ccc(C(F)F)cn2)c1COc1ccc(-c2ccc(S(C)(=O)=O)nc2)nn1` [Example 23], the half-life at 1 μM in data set [1] was over 2.17 h.

As to `Cn1nnc(-c2ccc(C(F)F)cn2)c1COc1ccc(-c2cn[nH]c2)nn1` [Example 24], in the data set with human MDR1 P-gp, the Papp A→B was determined as 10 ×10⁻⁶ cm/s and the efflux ratio came out at 6.6. Moreover, the half-life at 1 μM in data set [1] turned out to be 1.03 h.

For `Cn1nnc(-c2ccc(C(F)F)cn2)c1COc1ccc(-c2ccc(N)nc2)nn1` [Example 25], in data set [1], the half-life at 1 μM is over 2.17 h.

As for `Cn1nnc(-c2ccc(C(F)F)cn2)c1COc1ccc(-c2cccc(C(N)=O)c2)nn1` [Example 28], in the data set on human MDR1 P-gp, the Papp A→B was 3 ×10⁻⁶ cm/s and the efflux ratio stood at 17.2. In addition, the half-life at 1 μM in data set [1] is over 2.17 h.

Regarding `Cc1c(-c2ccc(OCc3c(-c4ccc(C(F)F)cn4)nnn3C)nn2)cc(C#N)n1C` [Example 29], the half-life at 1 μM in data set [1] is 1.62 h.

Turning to `Cc1nn(C)cc1-c1ccc(OCc2c(-c3ccc(C(F)F)cn3)nnn2C)nn1` [Example 30], in data set [1], the half-life at 1 μM is over 2.17 h.

With `COc1ncc(-c2ccc(OCc3c(-c4ccc(C(F)F)cn4)nnn3C)nn2)cn1` [Example 31], the half-life at 1 μM in data set [1] turned out to be 2.12 h.

In the case of `Cn1nnc(-c2ccc(C(F)F)cn2)c1COc1ccc(-c2cnn(C3CCC3)c2)nn1` [Example 32], the half-life at 1 μM in data set [1] came out at 1.3 h.

For the compound `Cc1c(-c2ccc(OCc3c(-c4ccc(C(F)F)cn4)nnn3C)nn2)cnn1C` [Example 33], the half-life at 1 μM in data set [1] is 1.63 h.

Turning to `Cn1nnc(-c2ccc(C(F)F)cn2)c1COc1ccc(-c2cnc3nonc3c2)nn1` [Example 35], the half-life at 1 μM in data set [1] was over 2.17 h.

With `Cc1nnn(-c2ccc(C(F)F)cn2)c1COc1ccc(-n2cc(C#N)cn2)nn1` [Example 37], in the data set with human MDR1 P-gp, the Papp A→B was 59 ×10⁻⁶ cm/s and the efflux ratio came out at 0.4. Also, the half-life at 1 μM in data set [1] is 2.15 h.

`Cc1nnn(-c2ccc(C(F)F)cn2)c1COc1ccc(-n2ncnc2C)nn1` [Example 38]: in the data set with human MDR1 P-gp, the Papp A→B worked out at 86 ×10⁻⁶ cm/s and the efflux ratio was 0.5.

For `Cn1nnc(-c2ccc(C(F)F)cn2)c1COc1ccc(-c2cnccn2)nn1` [Example 39], in the data set on human MDR1 P-gp, the Papp A→B came to 59 ×10⁻⁶ cm/s and the efflux ratio came to 0.6. Moreover, in data set [1], the half-life at 1 μM was over 2.17 h.

Take `Cc1nnn(-c2ccc(C(F)F)cn2)c1COc1ccc(-n2cnc(C#N)c2)nn1` [Example 42, 1-[6-({1-[5-(difluoromethyl)pyridin-2-yl]-4-methyl-1H-1,2,3-triazol-5-yl}methoxy)pyridazin-3-yl]-1H-imidazole-4-carbonitrile]: in the data set with human MDR1 P-gp, the Papp A→B turned out to be 24 ×10⁻⁶ cm/s and the efflux ratio turned out to be 1.4.

For the compound `Cc1nnn(-c2ccc(C(F)F)cn2)c1COc1ccc(-n2nccn2)nn1` [Example 43], in the data set on human MDR1 P-gp, the Papp A→B is 54 ×10⁻⁶ cm/s and the efflux ratio was found to be 0.7.

Take `Cc1ncnn1-c1ccc(OCc2c(-c3ccc(C(F)F)cn3)nnn2C)nn1` [Example 48, 3-({4-[5-(difluoromethyl)pyridin-2-yl]-1-methyl-1H-1,2,3-triazol-5-yl}methoxy)-6-(5-methyl-1H-1,2,4-triazol-1-yl)pyridazine]: in the data set with human MDR1 P-gp, the Papp A→B was 69 ×10⁻⁶ cm/s and the efflux ratio came out at 0.8. Moreover, in data set [1], the half-life at 1 μM is over 2.17 h.

For `Cn1nnc(-c2ccc(C(F)F)cn2)c1COc1ccc(-n2cc(C#N)cn2)nn1` [Example 49], the half-life at 1 μM in data set [1] is over 2.17 h.

As for `Cn1nnc(-c2ccc(C(F)F)cn2)c1COc1ccc(-n2cccn2)nn1` [Example 50], the half-life at 1 μM in data set [1] was determined as 2.17 h.

Consider `Cn1nnc(-c2ccc(C(F)F)cn2)c1COc1ccc(-n2cnc(C#N)c2)nn1` [Example 52], for which, in the data set on human MDR1 P-gp, the Papp A→B was determined as 18 ×10⁻⁶ cm/s and the efflux ratio was 2.7. Further, the half-life at 1 μM in data set [1] was over 2.17 h.

With `Cn1nnc(-c2ccc(C(F)F)cn2)c1COc1ccc(-n2ccc(C#N)n2)nn1` [Example 53], the half-life at 1 μM in data set [1] was over 2.17 h.

For the compound `Cc1nnn(-c2ccc(C(F)F)cn2)c1COc1ccc(-c2cnccn2)nn1` [Example 56, 3-({1-[5-(difluoromethyl)pyridin-2-yl]-4-methyl-1H-1,2,3-triazol-5-yl}methoxy)-6-(pyrazin-2-yl)pyridazine], in the data set with human MDR1 P-gp, the Papp A→B was 58 ×10⁻⁶ cm/s and the efflux ratio is 0.6. In addition, in data set [1], the half-life at 1 μM was over 2.17 h.
